# Measurements reported in patent US8895561B2, “Compounds and methods for treating candidiasis and aspergillus infections” (Cellceutix Corporation, priority 2012, dated 2014).
# Read-outs that look alike come from different tables or passages of the source.
# Legend:
# [1] = tested on: C. albicans GDH2346; test: Candida IC50, vegetative cells, by OD600 and fluorescence; assay type: cell-based; details: Candida albicans, GDH2346; vegetative cells; read-out: CA (Candida IC50)
# Protocol: Candida IC50s were determined by OD600 and fluorescence from vegetative cells and by MTS viability assay in the hyphal state. MICs were determined using a broth microdilution assay under standard CLSI conditions Bacteria strains: E. coli 25922 (EC), S. aureus 27660 (SA), E. faecalis 29212 (EF), P. aeruginosa 10145 (PA), and K. pneumoniae 13883 (KP). Cytotoxicity (EC50) was determined against mouse 3T3 fibroblasts, human transformed liver HepG2 cells, and human oral keratinocyte cell line, OKF6/TERT using an MTS viability assay. Candida IC50s<10 μg/mL, MICs<5 μg/mL and cytotoxicity EC50s>100 μM are indicated in green. MICs>5 μg/mL and cytotoxicity EC50s<100 μM are indicated in red. Candida IC50s (CA) were determined by OD600 and fluorescence from vegetative cells. MICs were determined using a broth microdilution assay under standard CLSI conditions Bacteria strains: E. coli 25922 (EC), S. aureus 27660 (SA), E. faecalis 29212 (EF), P. aeruginosa 10145 (PA), and K. pneumoniae 13883 (KP). Cytotoxicity (EC50) was determined against mouse 3T3 fibroblasts and human transformed liver HepG2 cells using an MTS viability assay. For determination of anti-Candida IC50s, the method was modified by using RPMI/MOPS buffer pH 6.3 and by addition of FDGlu, a substrate for the yeast enzyme exoglucanase which is secreted during cell growth. This provides a fluorescent readout for cell growth which was used in addition to the traditional optical density measure of growth. OD600 and fluorescence were determined at 24 and 48 hours and the average of all 4 reads was used for the final IC50 determination.
# [2] = Cytotoxicity, MTS viability assay; assay type: cell-based, human
# Protocol: (§1) Candida IC50s were determined by OD600 and fluorescence from vegetative cells and by MTS viability assay in the hyphal state. MICs were determined using a broth microdilution assay under standard CLSI conditions Bacteria strains: E. coli 25922 (EC), S. aureus 27660 (SA), E. faecalis 29212 (EF), P. aeruginosa 10145 (PA), and K. pneumoniae 13883 (KP). Cytotoxicity (EC50) was determined against mouse 3T3 fibroblasts, human transformed liver HepG2 cells, and human oral keratinocyte cell line, OKF6/TERT using an MTS viability assay. Candida IC50s<10 μg/mL, MICs<5 μg/mL and cytotoxicity EC50s>100 μM are indicated in green. MICs>5 μg/mL and cytotoxicity EC50s<100 μM are indicated in red.
# Candida IC50s (CA) were determined by OD600 and fluorescence from vegetative cells. MICs were determined using a broth microdilution assay under standard CLSI conditions Bacteria strains: E. coli 25922 (EC), S. aureus 27660 (SA), E. faecalis 29212 (EF), P. aeruginosa 10145 (PA), and K. pneumoniae 13883 (KP). Cytotoxicity (EC50) was determined against mouse 3T3 fibroblasts and human transformed liver HepG2 cells using an MTS viability assay.
# CLSI conditions Bacteria strains: clinical isolates; yeast strains: C. dubliniensis (NCPF3949), C. glabrata (ATCC 90030), C. krusei (ATCC 6258), C. parapsilosis (ATCC 22019), and C. tropicalis (ATCC 750). Cytotoxicity (EC50) was determined against mouse 3T3 fibroblasts, human transformed liver HepG2 cells, and human oral keratinocyte cell line, OKF6/TERT using an MTS viability assay.
# [3] = tested on: P. aeruginosa 10145; test: Bacterial MIC, broth microdilution, CLSI; assay type: cell-based; details: Pseudomonas aeruginosa, 10145; read-out: PA (MIC)
# Protocol: as §1, with “red. Candida IC50s (CA) were determined by OD600 and fluorescence from vegetative cells. MICs were determined using a broth microdilution assay under standard CLSI conditions Bacteria strains: E. coli 25922 (EC), S. aureus 27660 (SA), E. faecalis 29212 (EF), P. aeruginosa 10145 (PA), and K. pneumoniae 13883 (KP). Cytotoxicity (EC50) was determined against mouse 3T3 fibroblasts and human transformed liver HepG2 cells using an MTS viability assay.” for “red.”
# [4] = tested on: E. coli 25922; test: Bacterial MIC, broth microdilution, CLSI; assay type: cell-based; details: Escherichia coli, 25922; read-out: EC (MIC)
# Protocol: as §1, with “red. Candida IC50s (CA) were determined by OD600 and fluorescence from vegetative cells. MICs were determined using a broth microdilution assay under standard CLSI conditions Bacteria strains: E. coli 25922 (EC), S. aureus 27660 (SA), E. faecalis 29212 (EF), P. aeruginosa 10145 (PA), and K. pneumoniae 13883 (KP). Cytotoxicity (EC50) was determined against mouse 3T3 fibroblasts and human transformed liver HepG2 cells using an MTS viability assay.” for “red.”
# [5] = tested on: S. aureus 27660; test: Bacterial MIC, broth microdilution, CLSI; assay type: cell-based; details: Staphylococcus aureus, 27660; read-out: SA (MIC)
# Protocol: as §1, with “red. Candida IC50s (CA) were determined by OD600 and fluorescence from vegetative cells. MICs were determined using a broth microdilution assay under standard CLSI conditions Bacteria strains: E. coli 25922 (EC), S. aureus 27660 (SA), E. faecalis 29212 (EF), P. aeruginosa 10145 (PA), and K. pneumoniae 13883 (KP). Cytotoxicity (EC50) was determined against mouse 3T3 fibroblasts and human transformed liver HepG2 cells using an MTS viability assay.” for “red.”
# [6] = tested on: E. faecalis 29212; test: Bacterial MIC, broth microdilution, CLSI; assay type: cell-based; details: Enterococcus faecalis, 29212; read-out: EF (MIC)
# Protocol: as §1, with “red. Candida IC50s (CA) were determined by OD600 and fluorescence from vegetative cells. MICs were determined using a broth microdilution assay under standard CLSI conditions Bacteria strains: E. coli 25922 (EC), S. aureus 27660 (SA), E. faecalis 29212 (EF), P. aeruginosa 10145 (PA), and K. pneumoniae 13883 (KP). Cytotoxicity (EC50) was determined against mouse 3T3 fibroblasts and human transformed liver HepG2 cells using an MTS viability assay.” for “red.”
# [7] = human, HepG2 cells (transformed liver), read-out: HepG2 (cytotoxicity EC50)
# [8] = mouse, 3T3 fibroblasts, read-out: 3T3 (cytotoxicity EC50)
Compound,IC50 [1] [µg/mL],"EC50 [2, 7] [µM]","EC50 [2, 8] [µM]",MIC [3] [µg/mL],MIC [4] [µg/mL],MIC [5] [µg/mL],MIC [6] [µg/mL]
NCc1cccc(-c2ccc3[nH]c4ccc(-c5cccc(CN)c5)cc4c3c2)c1 [Compound 117],3.1,,,,,,
NCCCn1c2ccccc2c2ccccc21 [Compound 139],> 100,,,,,,
NCCCc1cccc(-c2ccc3c4ccc(-c5cccc(CCCN)c5)cc4n(CCN)c3c2)c1 [Compound 140],3.58,99,159,3.13,0.78,0.195,3.13
NCCCn1c2cc(Br)ccc2c2ccc(Br)cc21 [Compound 141],,62,107,100,12.5,12.5,
N=C(N)NCCCCCc1cccc(-c2ccc3c4ccc(-c5cccc(CCCNC(=N)N)c5)cc4n(CCCNC(=N)N)c3c2)c1 [Compound 142],1.65,100,131,25,3.13,1.56,6.25
NCCCOc1cc(OCCCN)cc(-c2ccc3c4ccc(-c5cc(OCCCN)cc(OCCCN)c5)cc4n(CCCN)c3c2)c1 [Compound 143],6.48,140,222,50,3.13,0.39,1.56
NCCCn1c2cc(-c3cccc(CCN)c3)ccc2c2ccc(-c3cccc(CCN)c3)cc21 [Compound 144],3.95,188,80,3.13,3.13,0.098,0.195
NCCCOc1cc(OCCCN)cc(-c2ccc3c(c2)c2ccccc2n3CCCN)c1 [Compound 145],23.9,790,> 1000,50,> 50,25,3.13
NCCCOc1cc(OCCCN)cc(-c2ccc3c4ccc(Br)cc4n(CCCN)c3c2)c1 [Compound 146],44.6,341,307,12.5,50,0.39,0.39
CCn1c2ccc(-c3cc(OCCCN)cc(OCCCN)c3)cc2c2cc(-c3cc(OCCCN)cc(OCCCN)c3)ccc21 [Compound 147],,,,6.25,1.56,0.098,0.39
CCn1c2ccc(-c3cc(C(=O)NCCN)cc(C(=O)NCCN)c3)cc2c2cc(-c3cc(C(=O)NCCN)cc(C(=O)NCCN)c3)ccc21 [Compound 148],8.74,312,450,> 50,25,3.13,> 50
